Common to all, as to assay type: cell-based, mouse
The subject of assay [1] is primary white adipocytes. The assay can be described thus: Cellular oxygen consumption rate (XF24 Extracellular Flux Analyzer, Seahorse) of primary adipocytes. As to the method:
The cellular oxygen consumption rate (OCR) of primary adipocytes was determined using an XF24 Extracellular Flux Analyzer (Seahorse Bioscience). […] Twenty-four hours later, adipocyte culture medium was changed to DMEM lacking NaHCO3 but containing 10 mM glucose, 1 mM pyruvate and the treatment chemicals. The uncoupled and maximal OCRs were determined using […] (carbonyl cyanide p-trifluoromethoxyphenylhydrazone), respectively. Complex-1-dependent respiration was inhibited with 3 μM rotenone. Ex vivo tissue respiration was measured using a Clark electrode (Strathkelvin Instruments) as described in Cohen et al. (2014) Cell 156:304-316. Freshly isolated tissues were briefly minced and transferred to the electrode chamber containing a respiration buffer consisting of 1×DPBS (Delbecco's phosphate-buffered saline), 2% BSA, 25 mM glucose and 1 mM pyruvate. Oxygen consumption values were normalized to tissue weight.

Assay [2] relates to PKA substrates CREB and HSL. In words: PKA signalling: protein phosphorylation by western blotting in primary adipocytes. As to the method:
UCP1 protein levels were measured by western blotting in white (FIG. 23A) and brown (FIG. 23B) adipocytes. […] Real-time triplicate readings (upper panel) and their averages (lower panel) are shown (n=4). […] The values are mean±s.e.m. Statistical analysis was conducted using the two-tailed t-test. *, P<0.05; **, P<0.005; ***, P<0.0005, compared with the control group.
(§1) Cells were homogenized in a lysis buffer containing 50 mMTris (pH 7.4), 500 mM NaCl, 1% NP40, 20% glycerol, 5 mM EDTA and 1 mM phenylmethylsulphonyl fluoride (PMSF) supplemented with protease and phosphatase inhibitor cocktails (Roche). The homogenates were centrifuged at 13,000 r.p.m. for 10 min, and the supernatants were used as whole-cell lysates. Protein concentration was determined by Bio-Rad protein assay, and […] protein lysate was separated in each SDS-PAGE lane. The separated proteins were transferred to a polyvinylidene difluoride (PVDF)membrane, which was blotted with antibodies in TBS containing 0.05% Tween (TBS-T) and 5% BSA. For secondary antibody incubation. TBS-T containing 5% milk was used. Enhanced chemiluminescence (ECL) western blotting substrates (Pierce) were used for visualization of the results.
A general note: Immunoblotting shows a protein as a band on a membrane.

The next assay relates to UCP1. In words: UCP1 protein levels by western blotting in primary adipocytes. As to the method:
Cells were homogenized in a lysis buffer containing 50 mM Tris (pH 7.4), 500 mM NaCl, 1% NP40, 20% glycerol, 5 mM EDTA and 1 mM PMSF, supplemented with protease and phosphatase inhibitor cocktails (Roche). The homogenates were centrifuges at 13,000 rpm for 10 min and the supernatants were used as whole cell lysates. Protein concentration was determined by Bio-Rad Bradford assay and 50 μg of proteins were used in each SDS-PAGE run. PVDF membrane was blotted with UCP1 antibody (Abeam) in TBS containing 0.05% Tween and 5% BSA. For secondary antibody incubation, TBS-T containing 5% milk was used. ECL western blotting substrates from Pierce were used for visualization of the results.
as §1

Assay [3] deals with primary white adipocytes. In words: Thermogenic gene expression (qRT-PCR) in primary white adipocytes. The note with it: for induce thermogenic gene expression, such as that of Ucp1 and Dio2: 1 μg/mL of the protein, primary white adipocytes (FIG. 6, FIG. 19E); for induce thermogenic gene expression, such as that of Ucp1 and Dio2 / effect on Ucp1 expression / thermogenic gene expression by EGF proteins: 24 hours; for effect on Ucp1 expression / thermogenic gene expression by EGF proteins: 1 μg/mL or 100 ng/mL, primary white adipocytes (FIG. 14A). The protocol:
Inguinal SV fractions were obtained from 30-35 days-old male mice by the following procedure. Inguinal fat tissue was dissected, washed with PBS, minced and digested for 45 min at 37° C. in PBS containing 10 mM CaCl, 2.4 U/mL dispase II (Roche), and 1.5 U/mL collagenase D (Roche). Digested tissue was filtered through a 100-μm cell strainer and centrifuged at 600 g for 5 min to pellet the SV cells which were then resuspended in SV culture medium (DMEM/F12 [1:1; Invitrogen] plus glutamax, pen/strep, and 10% FBS), filtered through a 40-μm cell strainer, centrifugation as above, resuspended in SV culture medium and plated. SV cells were grown to confluency for adipocyte differentiation which was induced by the adipogenic cocktail containing 1 μM dexamethasone, 5 μg/mL insulin, […] isobutylmethylxanthine (DMI), and 1 μM rosiglitazone in SV culture medium. 2 days after induction, cells were maintained in SV culture medium containing 5 μg/mL insulin and 1 μM rosiglitazone. Starting at day 6, cells were maintained in SV culture medium only and treated with various molecules for […] and harvested at day 8.
LLC cells were maintained in DMEM (Invitrogen) with 10% FBS and pen/strep. For conditioned media collection, cells were plated at ⅓ confluency. The following day, medium is changed to FreeStyle expression medium (Invitrogen) which was collected 24 hours later. For concentration of expression medium, LLC conditioned media was filtered using a 3 kilodalton (Kd) cut-off filter (Millipore). Adipocytes were maintained in SV culture media (DMEM/F12 [1:1; Invitrogen] plus glutamax, pen/strep, and 10% FBS) and conditioned media treatment experiments were performed 7 days post-differentiation. When adipocytes were treated with conditioned media for 24 hours, the treatment media were composed of 50% SV culturing medium and 50% LLC conditioned media. When conditioned medium was filtered and concentrated, adipocytes were exposed to 90% SV culturing medium and 10% concentrated LLC conditioned media.
RNA was extracted from cultured cells or frozen tissue samples using TRIzol (Invitrogen), purified with Qiagen RNAeasy minicolums and reverse transcribed using High Capacity cDNA Reverse Transcription kit (Applied Biosystems). Resulting cDNA was analyzed by RT-qPCR. Briefly, 25 ng of cDNA and […] of each primer were mixed with SYBR® GreenER™ PCR Master Mix (Invitrogen). Reactions were performed in 384-well format using an ABI PRISM® 7900HT instrument (Applied Biosystems). Relative mRNA levels were calculated using the comparative CT method normalized to cyclophilin.
Inguinal stroma-vascular fractions were obtained from 30-35-day-old male mice using the following procedure: Inguinal fat tissue was dissected, washed with PBS, minced and digested for 45 min at 37° C. in PBS containing 10 mM CaCl2, 2.4 Uml^−1 dispase 11 (Roche) and 1.5 U ml^−1 collagenaseD (Roche). Digested tissue was filtered through a 100-μm cell strainer and centrifuged at 600 g for 5 min to pellet the stroma-vascular cells. The pellets were then resuspended in adipocyte culture medium (DMEM/F2 (1:1, Invitrogen) plus GlutaMAX, penicillin and streptomycin, and 10% FBS), filtered through a 40-μm cell strainer, centrifuged as above, resuspended in adipocyte culture medium and plated. The stroma-vascular cells were grown to confluence for adipocyte differentiation, which was induced by an adipogenic cocktail containing 1 μM dexamethasone, 5 μg ml^−1 insulin, […] isobutylmethylxanthine (DMI) and 1 μM rosiglitazone in adipocyte culture medium. Two days after induction, cells were maintained in adipocyte culture medium containing 5 μg ml^−1 insulin and 1 μM rosiglitazone. Starting on day 6, cells were maintained in adipocyte culture medium only and treated with various molecules for 2-24 h and harvested on day 8.
LLC cells were maintained in DMEM (Invitrogen) with 10% FBS, and penicillin and streptomycin. For conditioned medium collection, cells were plated at a 1:3 confluence.
A general note: In qPCR the cycle at which signal appears reflects the starting amount.

Entries after “also recorded” stand apart in the source; their conditions may differ.

We go through seven molecules from patent US20160175401A1, “COMPOITIONS AND METHODS FOR MODULATING THERMOGENESIS USING PTH-RELATED AND EGF-RELATED COMPOUNDS” (DANA-FARBER CANCER INSTITUTE INC., priority 2013, published 2016).

For `NC[C@H](O)c1ccc(O)c(O)c1` [norepinephrine, reference compound], the “oxygen consumption, including basal, uncoupled and maximal respiration” value with primary white adipocytes [1] (100 nM NE, 100 ng ml^−1 PTHrP or PTH, 24 h (FIG. 23C)) is on record as “significantly raised oxygen consumption”. The “uncoupled respiration and maximal respiration potential” value in the assay on primary white adipocytes [1] (24 hour treatment, norepinephrine 100 nM, peptides 100 ng/mL, SeaHorse (FIG. 8D)) is reported as “significantly elevate”. Further, the “phosphorylation of the PKA substrates CREB and HSL” value in assay [2] (100 nM NE, 100 ng ml^−1 PTHrP or PTH, 30 min, primary white and brown adipocytes (FIG. 23D-23E)) is reported as “stimulated the phosphorylation”. Also, the UCP1 protein levels entry with UCP1 (100 nM NE, 100 ng ml^−1 PTHrP or PTH, 24 h, primary white and brown adipocytes (FIG. 23A-23B)) was “comparably increased UCP1 protein levels”; in the assay with UCP1 (24 hour treatment, norepinephrine 100 nM, peptides 100 ng/mL, western blotting (FIG. 8D)) it was “significantly increased”.

For the molecule `C=CC(=O)Nc1ccc2ncnc(Nc3ccc(OCc4cccc(F)c4)c(Cl)c3)c2c1` [AST-1306, reference compound], in the assay on primary white adipocytes [3] (AST-1306 1 μM, LLC-cell-conditioned medium, 24 h (FIG. 14C, 21A)), the “effect on LLC cell conditioned media thermogenic (browning) activity” value is recorded as “does not inhibit or affect; also recorded: does not block; also recorded: largely unaffected”. For the same molecule, the “inhibition of BTC, EREG and HBEGF activity (Ucp1 mRNA induction)” value in the assay on primary white adipocytes [3] (AST-1306 1 μM, BTC, EREG, HBEGF 100 ng/ml each, 24 h (FIG. 14B, 20C)) is “inhibit BTC, EREG and HBEGF activity; also recorded: completely blocked Ucp1 mRNA induction”.

“EREG: recombinant mouse EREG (Val56-Leu101; Catalog No. 1068-EP/CF), R&D Systems”: in the assay on primary white adipocytes [3], the “induce thermogenic gene expression, such as that of Ucp1 and Dio2” value (“induce thermogenic gene expression, such” for short) is “most potent proteins to induce thermogenic gene expression; also recorded: most potent proteins for inducing thermogenic gene expression; also recorded: induced Ucp1 expression”; the “effect on Ucp1 expression / thermogenic gene expression by EGF proteins” value is given as “largest effect on Ucp1 expression”.

On to “TGFA: recombinant human TGFA (Val40-Ala89; Catalog No. 239-A-100), R&D Systems”, for which the “effect on Ucp1 expression / thermogenic gene expression by EGF proteins” value in the assay on primary white adipocytes [3] is on record as “largest effect on Ucp1 expression”.

Take `O=S(=O)(NCCNC/C=C/c1ccc(Br)cc1)c1cccc2cnccc12` [H89, reference compound]: the PKA signalling result in assay [2] (H89 50 μM white, 30 μM brown adipocytes, pretreated 1 h (FIG. 23D-23E)) was “blocked PKA signalling”. The “transcriptional regulation (Ucp1, Dio2) by noradrenaline, PTHrP and PTH” value in the assay on primary white adipocytes [3] (H89 50 μM white, 30 μM brown adipocytes, factors 2 h (FIG. 23F-23G)) was “completely inhibited transcriptional regulation”.

B1: BTC: recombinant mouse BTC (Asp32-Gln118; Catalog No. 1025-CE-025/CF), R&D Systems (protein)
chain: DGNTTRTPETNGSLCGAPGENCTGTTPRQKVKTHFSRCPKQYKHYCIHGRCRFVVDEQTPSCICEKGYFGARCERVDLFYLQQDRGQ
Take B1: the “induce thermogenic gene expression, such” value in the assay with primary white adipocytes [3] is “most potent proteins to induce thermogenic gene expression; also recorded: most potent proteins for inducing thermogenic gene expression; also recorded: induced Ucp1 expression”.

B2: HBEGF: recombinant human HBEGF (Met1-Leu148; Catalog No. 259-HE-050/CF), R&D Systems (protein)
chain: LVTGESLERLRRGLAAGTSNPDPPTVSTDQLLPLGGGRDRKVRDLQEADLDLLRVTLSSKPQALATPNKEEHGKRKKKGKGLGKKRDPCLRKYKDFCIHGECKYVKELRAPSCICHPGYHGERCHGLSL
With B2, the “induce thermogenic gene expression, such” value in the assay on primary white adipocytes [3] is reported as “most potent proteins for inducing thermogenic gene expression; also recorded: induced Ucp1 expression”; in the assay with primary white adipocytes [3] (listed as HB-EGF), “most potent proteins to induce thermogenic gene expression”. Besides, the “effect on Ucp1 expression / thermogenic gene expression by EGF proteins” value in the assay with primary white adipocytes [3] is reported as “largest effect on Ucp1 expression”.
